As a reminder, the IC50 is the concentration that gives 50% inhibition.

The source made the active and inactive calls. How the calls were made is not given here.

Drawing on PubChem BioAssay AID624407 (The Scripps Research Institute Molecular Screening Center, 2012), this text covers IC50 for 26 molecules.

This test deals with parental CHO-K1 cells, HTRF counterscreen. Description: antagonist activity in parental CHO-K1 cells, late-stage follow-up, counter-screen for OX1R antagonist project, cell-based, HTRF, dose response (AID 624407). In general terms: A counterscreen serves to expose hits that act by an unwanted route or on another target.
Turning to `Cc1cccc(C=NNC(=O)c2cc3c(s2)-c2ccccc2CC3)c1`, the IC50 is > 59.6 µM (inactive). For the molecule `Cc1ccccc1NC(=O)C1CCCN1S(=O)(=O)c1ccccc1C(F)(F)F` (stereo unspecified), the IC50 is > 59.6 µM (inactive). As for `CCSC1=C(C#N)C(c2ccccc2Cl)C(C(=O)c2cccs2)C(O)(C(F)(F)F)N1` (stereo unspecified), the figure is > 59.6 µM (inactive). Next, `COc1ccc(OC)c(S(=O)(=O)NCC(c2ccco2)N2CCc3ccccc32)c1` (stereo unspecified): > 59.6 µM (inactive); `CC(=C/c1ccccc1)/C=C1/SC(N2CCOCC2)=NC1=O`: 12.4 µM (inactive). Next, `COc1cccc(/C=C2/Oc3ccccc3N(CC(=O)NCC3CCCO3)C2=O)c1` (stereo unspecified): > 59.6 µM (inactive); `CSc1cccc(N2CC(C(=O)NCCN3C(=O)S/C(=C\c4cccnc4)C3=O)CC2=O)c1` (stereo unspecified): 3.37 µM. Regarding `CCn1c(SCC(=O)Nc2ccc3c(c2)c2ccccc2n3CC)nnc1-c1cnccn1`, the IC50 was > 59.6 µM (inactive).

`O=C(CN1C(=O)/C(=C\c2cccc(Br)c2)Oc2ccccc21)NCC1CCCO1` (stereo unspecified): the IC50 was > 59.6 µM (inactive).

In the case of `Cc1c(NS(=O)(=O)c2cccc(C(=O)OCC(=O)N(C)C3CCCCC3)c2)c(=O)n(-c2ccccc2)n1C`, the IC50 was > 59.6 µM (inactive). As for `CCc1cc(C(=O)OCC(=O)N2CCC(c3ccccc3)=N2)sc1C`, the figure is > 59.6 µM (inactive); as for `CCOC(=O)N1CCN(C(=O)CSc2ccc(-c3ccccc3)nn2)CC1`, > 59.6 µM (inactive). As for `COc1cc(OC)c(-c2nc3ccccc3s2)cc1OC`, the figure is > 59.6 µM (inactive).

On to `O=C(CSc1ccc(-c2ccccc2)nn1)c1cccs1`, for which the IC50 is > 59.6 µM (inactive). As for `Cc1cc(Cl)ccc1OCCCC(=O)NCCN1C(=O)S/C(=C\c2cccnc2)C1=O`, the IC50 is 8.79 µM. Next, `COCCCNC(=O)CCC(=O)NNc1nc2ccccc2c2nc(-c3ccccc3)nn12`: > 59.6 µM (inactive). For the molecule `O=c1cc(CN2CC(O)Cc3ccc4ccccc4c32)nc2sccn12` (stereo unspecified), the IC50 was > 59.6 µM (inactive). Next, `Cc1cccc(NC(=O)[C@@H]2CCCN2S(=O)(=O)c2ccc(Cl)cc2)c1`: > 59.6 µM (inactive); `Cc1noc(C)c1COc1ccc(C(=O)OCC(=O)N2CC(=O)Nc3ccccc32)cc1`: > 59.6 µM (inactive); `CCOc1ccccc1C(=O)Nc1ccc2nc3n(c(=O)c2c1)CCCCC3`: > 59.6 µM (inactive). Turning to `CN(N=Cc1cc([N+](=O)[O-])ccc1O)c1ccccc1`, the IC50 was > 59.6 µM (inactive). Regarding `CCN(CC)c1ccc(NC(=O)Cn2c(C(C)NC(=O)c3ccccc3)nc3ccccc32)cc1` (stereo unspecified), the IC50 is > 59.6 µM (inactive). Next, `CCc1cc2c(SCC(=O)N(CC)c3c(N)n(Cc4ccccc4)c(=O)[nH]c3=O)ncnc2s1`: > 59.6 µM (inactive); `Fc1cccc(Nc2nc3ccccc3n3cnnc23)c1`: > 59.6 µM (inactive); `CSc1cccc(NC(=O)C2CCCN2S(=O)(=O)c2ccc(Br)s2)c1` (stereo unspecified): > 59.6 µM (inactive). `Cc1ccc(-c2csc3nnc(SCC(=O)Nc4nsc(-c5ccccc5)n4)n23)cc1`: the IC50 is > 59.6 µM (inactive).
